For 12 compounds, EC50 results are on record in patent US20260007758A1, “SO[…]-2 RECEPTOR (SST2R) NON-PEPTIDE DRUG CONJUGATES AND USES THEREOF” (Crinetics Pharmaceuticals, Inc., priority 2024, published 2026).

As usually defined, the EC50 is the midpoint of the concentration-response curve.

Holding throughout (format): cell-based
The test system of assay [1] is NCI-H524 human small cell lung cancer cells. Description: H524 assay: inhibition of cell proliferation (CellTiter Glo). Particulars: 2 h treatment, washout, additional 70 h incubation. Put shortly:
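Proliferation was measured by CellTiter Glo 70 h after a washout that followed a 2 h pulse of NDC. Doses were an 11-point, two-fold dilution series from 1 uM. IC50 was fitted with a four-parameter model to luminescence-based % inhibition relative to control cells.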
A general note: ATP-based viability assays read luminescence as a measure of living cells.

Assay [2] concerns the target T1, human somatostatin receptor subtype 2 (Homo sapiens, UniProt P30874).
T1 construct: expressed in transfected cells
Description: Functional assay for SSTR2 agonists (HTRF cAMP). Particulars: CHO-K1 cells stably expressing human SST2; NKH477-stimulated cAMP; 20 min at 37 C; read-out: hSST2 cAMP Avg EC50. The procedure, abridged: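 Agonist activity read as fall in intracellular cAMP: HTRF 665/620 nm ratio regressed to a cAMP standard curve, EC50 fitted. Stable human SSTR2 CHO-K1 cells exposed 20 min at 37 °C to compound, final concentrations typically 0-10,000 nM.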
In general terms: TR-FRET usually uses a lanthanide donor and a delayed reading to cut background.

The target in another assay is T2, SST2 (Homo sapiens, UniProt P30874).
T2 construct: host or cells: PathHunter CHO-K1 SST2 cells
T2 sequence (P30874 whole entry): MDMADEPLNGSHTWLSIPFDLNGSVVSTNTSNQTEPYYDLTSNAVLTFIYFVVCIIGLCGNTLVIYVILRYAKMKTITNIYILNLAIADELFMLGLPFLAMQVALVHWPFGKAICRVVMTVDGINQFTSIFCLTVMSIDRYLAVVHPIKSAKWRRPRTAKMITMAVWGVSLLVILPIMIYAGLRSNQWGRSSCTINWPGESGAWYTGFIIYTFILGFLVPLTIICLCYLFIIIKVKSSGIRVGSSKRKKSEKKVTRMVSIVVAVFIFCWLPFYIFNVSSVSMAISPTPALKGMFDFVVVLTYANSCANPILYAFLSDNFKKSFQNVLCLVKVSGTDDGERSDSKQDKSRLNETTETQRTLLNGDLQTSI
Description: PathHunter CHO-K1 SST2 Internalization Assay. Particulars: PathHunter CHO-K1 SST2 cells; 90 min at 37 C; luminescence; read-out: Internalization EC50. Put shortly:
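Four-parameter nonlinear fits of background-corrected luminescence (duplicate means) gave IC50s. NDCs were serially diluted 1:3 over 11 points from a 10 uM final top concentration and incubated 90 min at 37 C with human SST2 CHO-K1 cells plated 48 h earlier at 2500/well. Beta-Glo read-out developed 60 min at RT.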

T1 sequence (P30874 whole entry): as above

Consider `CC[C@H](C)[C@@H]([C@@H](CC(=O)N1CCC[C@H]1[C@H](OC)[C@@H](C)C(=O)N[C@H](C)[C@@H](O)c1ccccc1)OC)N(C)C(=O)[C@@H](NC(=O)[C@H](C(C)C)N(C)C(=O)OCc1ccc(NC(=O)[C@H](CCCNC(N)=O)NC(=O)[C@@H](NC(=O)CN(C)C(=O)CCOCCC(=O)NCCNc2ncc(-c3cc(C)cc(F)c3)c(N3CCC(N)CC3)c2-c2nc3ccc(Cl)cc3[nH]2)C(C)C)cc1C(=O)NCC(=O)O)C(C)C` [Compound 71], for which the results for the EC50 (in assay [1]; in assay [2]; at SST2) were 100 nM, 0.14 nM and 7.5 nM, respectively.
For `CC[C@H](C)[C@@H]([C@@H](CC(=O)N1CCC[C@H]1[C@H](OC)[C@@H](C)C(=O)N[C@H](C)[C@@H](O)c1ccccc1)OC)N(C)C(=O)[C@@H](NC(=O)[C@H](C(C)C)N(C)C(=O)OCc1ccc(NC(=O)[C@H](CCCNC(N)=O)NC(=O)[C@@H](NC(=O)CCOCCOCCOCCOCCC(=O)NCCNc2ncc(-c3cc(C)cc(F)c3)c(N3CCC(N)CC3)c2-c2nc3ccc(Cl)cc3[nH]2)C(C)C)cc1C(=O)N1CC(N)C1)C(C)C` [Compound 59], in that order: 260 nM, 0.25 nM and 2 nM.
For `CC[C@H](C)[C@@H]([C@@H](CC(=O)N1CCC[C@H]1[C@H](OC)[C@@H](C)C(=O)N[C@H](C)[C@@H](O)c1ccccc1)OC)N(C)C(=O)[C@@H](NC(=O)[C@H](C(C)C)N(C)C(=O)OCc1ccc(NC(=O)[C@H](CCCNC(N)=O)NC(=O)[C@@H](NC(=O)c2cc(NCCOCCC(=O)NCCNc3ncc(-c4cc(C)cc(F)c4)c(N4CCC(N)CC4)c3-c3nc4ccc(Cl)cc4[nH]3)cc(C(=O)NCC(N)=O)c2)C(C)C)cc1)C(C)C` [Compound 186], in that order: 470 nM, 0.26 nM and 2.7 nM.
For `CC[C@H](C)[C@@H]([C@@H](CC(=O)N1CCC[C@H]1[C@H](OC)[C@@H](C)C(=O)N[C@H](C)[C@@H](O)c1ccccc1)OC)N(C)C(=O)[C@@H](NC(=O)[C@H](C(C)C)N(C)C(=O)OCc1ccc(NC(=O)[C@H](CCCNC(N)=O)NC(=O)[C@@H](NC(=O)[C@@H](CS(=O)(=O)O)NC(=O)CCOCCC(=O)NCCNc2ncc(-c3cc(C)cc(F)c3)c(N3CCC(N)CC3)c2-c2nc3ccc(Cl)cc3[nH]2)C(C)C)cc1C(=O)NCCN)C(C)C` [Compound 28], in that order: 120 nM, 0.074 nM and 11 nM.
`CC[C@H](C)[C@@H]([C@@H](CC(=O)N1CCC[C@H]1[C@H](OC)[C@@H](C)C(=O)N[C@H](C)[C@@H](O)c1ccccc1)OC)N(C)C(=O)[C@@H](NC(=O)[C@H](C(C)C)N(C)C(=O)OCc1ccc(NC(=O)[C@H](CCCNC(N)=O)NC(=O)[C@@H](NC(=O)c2cc(NC(=O)CCCC(=O)NCCNc3ncc(-c4cc(C)cc(F)c4)c(N4CCC(N)CC4)c3-c3nc4ccc(Cl)cc4[nH]3)cc(C(=O)NC[C@@H](N)C(=O)O)c2)C(C)C)cc1)C(C)C` [Compound 170]: the EC50 stood at 22 nM in assay [1], 0.31 nM in assay [2] and 12 nM on SST2.
For `CC[C@H](C)[C@@H]([C@@H](CC(=O)N1CCC[C@H]1[C@H](OC)[C@@H](C)C(=O)N[C@H](C)[C@@H](O)c1ccccc1)OC)N(C)C(=O)[C@@H](NC(=O)[C@H](C(C)C)N(C)C(=O)OCc1ccc(NC(=O)[C@H](CCCNC(N)=O)NC(=O)[C@@H](NC(=O)CCCCCCCCNc2ncc(-c3cc(C)cc(F)c3)c(N3CCC(N)CC3)c2-c2nc3ccc(Cl)cc3[nH]2)C(C)C)c(O[C@@H]2O[C@H](C(=O)NCC(=O)O)[C@@H](O)[C@H](O)[C@H]2O)c1)C(C)C` [Compound 193], in that order: 32 nM, 0.87 nM and 3.8 nM.
For `CC[C@H](C)[C@@H]([C@@H](CC(=O)N1CCC[C@H]1[C@H](OC)[C@@H](C)C(=O)N[C@H](C)[C@@H](O)c1ccccc1)OC)N(C)C(=O)[C@@H](NC(=O)[C@H](C(C)C)N(C)C(=O)OCc1ccc(NC(=O)[C@H](CCCNC(N)=O)NC(=O)[C@@H](NC(=O)CCOCCC(=O)N(C)CC(=O)NCCNc2ncc(-c3cc(C)cc(F)c3)c(N3CCC(N)CC3)c2-c2nc3ccc(Cl)cc3[nH]2)C(C)C)c(O)c1)C(C)C` [Compound 199], in that order: 8.9 nM, 0.071 nM and 4.1 nM.
For `CC[C@H](C)[C@@H]([C@@H](CC(=O)N1CCC[C@H]1[C@H](OC)[C@@H](C)C(=O)N[C@H](C)[C@@H](O)c1ccccc1)OC)N(C)C(=O)[C@@H](NC(=O)[C@H](C(C)C)N(C)C(=O)OCc1ccc(NC(=O)[C@H](CCCNC(N)=O)NC(=O)[C@@H](NC(=O)c2cc(NCCOCCOCCOCCC(=O)NCCNc3ncc(-c4cc(C)cc(F)c4)c(N4CCC(N)CC4)c3-c3nc4ccc(Cl)cc4[nH]3)cc(C(=O)O)c2)C(C)C)cc1)C(C)C` [Compound 177], in that order: 2300 nM, 0.23 nM and 11 nM.
Consider `CC[C@H](C)[C@@H]([C@@H](CC(=O)N1CCC[C@H]1[C@H](OC)[C@@H](C)C(=O)N[C@H](C)[C@@H](O)c1ccccc1)OC)N(C)C(=O)[C@@H](NC(=O)[C@H](C(C)C)N(C)C(=O)OCc1ccc(NC(=O)[C@H](CCCNC(N)=O)NC(=O)[C@@H](NC(=O)[C@H](CCC(=O)O)NC(=O)CCOCCOCCOCCOCCC(=O)NCCNc2ncc(-c3cc(C)cc(F)c3)c(N3CCC(N)CC3)c2-c2nc3ccc(Cl)cc3[nH]2)C(C)C)cc1C(=O)N1CC(N)C1)C(C)C` [Compound 65], for which the 50% effective concentration (EC50) in assay [1] was determined as 17 nM; in assay [2] it was 0.074 nM; at SST2, 3.4 nM.
Regarding `CC[C@H](C)[C@@H]([C@@H](CC(=O)N1CCC[C@H]1[C@H](OC)[C@@H](C)C(=O)N[C@H](C)[C@@H](O)c1ccccc1)OC)N(C)C(=O)[C@@H](NC(=O)[C@H](C(C)C)N(C)C(=O)OCc1ccc(NC(=O)[C@H](CCCNC(N)=O)NC(=O)[C@@H](NC(=O)CCOCCOCCOCCOCCC(=O)NCCNc2ncc(-c3cc(C)cc(F)c3)c(N3CCC(N)CC3)c2-c2nc3ccc(Cl)cc3[nH]2)C(C)C)cc1C(=O)N1CC(C(=O)O)C1)C(C)C` [Compound 67], the EC50 in assay [1] worked out at 85 nM; in assay [2], 0.086 nM; at SST2, 5.5 nM.
As to `CC[C@H](C)[C@@H]([C@@H](CC(=O)N1CCC[C@H]1[C@H](OC)[C@@H](C)C(=O)N[C@H](C)[C@@H](O)c1ccccc1)OC)N(C)C(=O)[C@@H](NC(=O)[C@H](C(C)C)N(C)C(=O)OCc1ccc(NC(=O)[C@H](CCCNC(N)=O)NC(=O)[C@@H](NC(=O)C[C@@H](N)C(=O)NCCOCCC(=O)NCCNc2ncc(-c3cc(C)cc(F)c3)c(N3CCC(N)CC3)c2-c2nc3ccc(Cl)cc3[nH]2)C(C)C)c(CCC(=O)O)c1)C(C)C` [Compound 205], the figures for the concentration giving a half-maximal response (EC50) (in assay [1]; in assay [2]; on SST2) were 37 nM, 0.086 nM and 5.2 nM, respectively.
For `CC[C@H](C)[C@@H]([C@@H](CC(=O)N1CCC[C@H]1[C@H](OC)[C@@H](C)C(=O)N[C@H](C)[C@@H](O)c1ccccc1)OC)N(C)C(=O)[C@@H](NC(=O)[C@H](C(C)C)N(C)C(=O)OCc1ccc(NC(=O)[C@H](CCCNC(N)=O)NC(=O)[C@@H](NC(=O)[C@H](Cc2c[nH]cn2)NC(=O)CCOCCC(=O)NCCNc2ncc(-c3cc(C)cc(F)c3)c(N3CCC(N)CC3)c2-c2nc3ccc(Cl)cc3[nH]2)C(C)C)c(O[C@@H]2C[C@H](C(=O)O)[C@@H](O)[C@H](O)[C@H]2O)c1)C(C)C` [Compound 243], in that order: 17 nM, 0.082 nM and 3.2 nM.
